Experimental data: patent US11028078B2 (The Johns Hopkins University, priority 2011, dated 2021)

Experiments:
HUVEC = HUVEC proliferation assay ([3H]thymidine incorporation); format: cell-based, human; settings: for Proliferation (IC50/IC50 Itra): IC50 of analog relative to IC50 of itraconazole; for IC50: Homo sapiens, Table 5, read-out: Activity in HUVEC Proliferation IC50; for inhibition of HUVEC proliferation: data not shown
Method: The activity of the analogs against HUVEC proliferation, an in vitro proxy for angiogenesis inhibition (Table 3) was analyzed. […]
Pooled HUVEC (Lonza) were grown in EGM-2 bullet kit media (Lonza) and used at passage eight or lower. The proliferation assays were conducted as previously described (Nacev, B.; Low, W. K.; Huang, Z.; Su, T.; Su, Z.; Alkuraya, H.; Kasuga, D.; Sun, W.; Trager, M.; Braun, M.; Fischer, G.; Zhang, K.; Liu, J. O., Acalcineurin-independent mechanism of angiogenesis inhibition by anon-immunosuppressive Cyclosporin Aanalog. J. Pharmacol. Exp. Ther. 2011, DOI:10.1124/jpet.111.18085).

VEGFR2 = VEGFR2 glycosylation in HUVEC (Western blot scoring); format: cell-based, human; settings: for Glycosylation (2 μM dose): VEGFR2 hypoglycosylation score in HUVEC, 24 h; for VEGFR2 glycosylation defect: data not shown
Method: VEGFR2 hypoglycosylation was scored either robust (++), intermediate (+), or absent (−) (FIG. 6).
HUVEC were seeded at 5×10^4 per well of a 6-well plate in 3 mL of media. After an overnight recovery, the media was replaced with 2 mL fresh media and the analogs were added from 200× stocks in DMSO. Following a 24-h incubation, the media was aspirated and 2×SDS sample buffer was added to the cells which were incubated on ice for 10 min and then boiled for 10 min. […] Following three washes in TBS-T, the membrane was incubated with anti-rabbit horseradish peroxidase conjugated IgG (GE Healthcare) (1:5000-1:10000 dilution) in 1% BSA in TBS-T. The membranes were washed three times in TBS-T, incubated for 1-5 minutes with ECL substrate (Immobilon Wester, Milipore) and visualized (Kodak Image Staion 440 CF).

[1] = test system: MB cultures derived from Ptch−/+; p53−/− mice; assay: Medulloblastoma (MB) proliferation assay; format: cell-based, mouse; settings: for MB Proliferation (IC50/IC50 Itra): mouse medulloblastoma cultures, 96 h, relative to itraconazole; for inhibition of MB proliferation: FIG. 9A
From the text: These cultures were derived from Ptch^−/+; p53^−/− mice that spontaneously develop medulloblastoma associated with ligand independent Hh pathway activation.
MB cultures were derived from mouse Ptch^−/+; p53^−/− MB grown as hind-flank allografts in nude mice (Harlan). Briefly, tumors were mechanically disrupted and made into single cell suspensions by two passages through a 70 μm nylon filter. Cells were pelleted by centrifugation and resuspended in PBS pH 7.4 twice. The cell suspension was then subjected to centrifugation at 1000×g for 25 min over a ficoll gradient. The viable cell layer formed at the ficoll boundary was then collected, suspended in PBS, and pelleted by centrifugation. The resulting pellet was then suspended and cultured as “neurospheres” in Neurobasal Media-A supplemented with retinoic acid deficient B-27 extract (NBMedia). Cells were cultured for three passages, with neurospheres disaggregated using Accumax (Innovative Cell Technologies) between passages.
Cultured MB neurospheres were disaggregated as described and 1×10^4 cells were seeded into wells of a 96-well assay plate in NBMedia and exposed to multiple analogue concentrations: Relative cell numbers following a 96-h incubation were quantified by CellTiter 96® AQueous One Solution Cell Proliferation Assay (Promega) per manufacturer's recommendations using a SpectraMax M2e spectrophotometer and SoftMax Pro software (Molecular Devices). Data was analyzed using Prism5 (GraphPad Software) and IC50 and IC90 values were determined from dose-response curves fitted to mean corrected absorbance normalized to control treatment.

Gli1 transcript = assay: Quantification of Gli1 transcript by TaqMan analysis in MB cells (Hh pathway); format: cell-based, mouse; settings: for Gli I Inhibition (IC90 Prolif. dose): Gli1 transcript fold induction score, MB cells exposed 24 h at the IC90 for MB proliferation; for inhibition of Gli1 transcript levels: established MB cultures, FIG. 9B
From the text: Inhibitors of the Hh pathway are known to inhibit MB cell proliferation. However, MB cell proliferation is also affected by drugs with targets other than Hh signaling.
Following drug exposure, cells were washed in PBS and pelleted by centrifugation at 300×g. Cell pellets were lysed in Trizol reagent (Invitrogen). Total RNA was separated and collected in the aqueous phase following centrifugation of lysate in the presence of chloroform. Total RNA was ethanol precipitated and purified over RNeasy Mini Kit (Qiagen) filter columns per manufacturer's recommendations. Transcript levels were quantified using gene-specific TaqMan primer/probe sets and the StepOne Plus Real-Time PCR system (Applied Biosystems) on cDNA reverse transcribed using the QuantiTect Reverse Transcription Kit (Qiagen) per manufacturers' recommendations. Results were quantified using StepOne Plus software v2.1 (Applied Biosystems) and were expressed as fold induction relative to control samples using the A ΔCt (2^−ΔΔCt) method with actin as an internal control. The primer/probe set (Applied Biosystems) for TaqMan PCR for mouse Gli-1 was Mm00494645_m1, and for mouse actin was Mm00607939_s1.

Row | Molecule | Proliferation (IC50/IC50 Itra) (HUVEC; HUVEC) | Glycosylation (2 μM dose) (VEGFR2) | MB Proliferation (IC50/IC50 Itra) [1] | Gli I Inhibition (IC90 Prolif. dose) (Gli1 transcript) | further results
1 | CC(C)CCn1ncn(-c2ccc(N3CCN(c4ccc(OC[C@@H]5CO[C@@](Cn6cncn6)(c6ccc(Cl)cc6Cl)O5)cc4)CC3)cc2)c1=O (relative stereo) [Compound 7i, cis-(2S,4R)-4-[4-[4-[4-[[2-(2,4-Dichlorophenyl)-2-(1H-1,2,4-triazol-1-ylmethyl)-1,3-dioxolan-4-yl]methoxy]phenyl]-lpiperazinyl]phenyl]-2,4-dihydro-2-(3-methylbutyl)-3H-1,2,4-triazol-3-one] | 1.42 | + | 0.41 | ++ (≤0.15) | 
2 | O=c1n(-c2ccc(N3CCN(c4ccc(OCC5COC(Cn6cncn6)(c6ccc(Cl)cc6Cl)O5)cc4)CC3)cc2)cnn1C1CCCCC1 [Compound 7k, cis-(2S,4R)-4-[4-[4-[4-[[2-(2,4-Dichlorophenyl)-2-(1H-1,2,4-triazol-1-ylmethyl)-1.3-dioxolan-4-yl]methoxy]phenyl]-lpiperazinyl]phenyl]-2,4-dihydro-2-(1-cyclohexyl)-3H-1,2,4-triazol-3-one] | 0.44 | ++ | 0.37 | − (≥0.45) | 
3 | O=c1n(-c2ccc(N3CCN(c4ccc(OCC5COC(Cn6cncn6)(c6ccc(Cl)cc6Cl)O5)cc4)CC3)cc2)cnn1CCCCCCc1ccccc1 [Compound 7n, cis-(2S,4R)-4-[4-[4-[4-[[2-(2,4-Dichlorophenyl)-2-(1H-1,2,4-triazol-1-ylmethyl)-1,3-dioxolan-4-yl]methoxy]phenyl]-lpiperazinyl]phenyl]-2,4-dihydro-2-(6-phenylhexyl)-3H-1,2,4-triazol-3-one] |  | − | 0.69 | ++ (≤0.15) | Proliferation (EC50/IC50 Itra) (HUVEC; HUVEC, footnote g: EC50 of analog relative to IC50 of itraconazole): 1.45^g
4 | O=c1[nH]ncn1-c1ccc(N2CCN(c3ccc(OC[C@H]4CO[C@](Cn5cncn5)(c5ccc(Cl)cc5Cl)O4)cc3)CC2)cc1 [Compound 17a, 4-(4-(4-(4-(((2R,4S)-2-((1H-1,2,4-triazol-1-yl)methyl)-2-(2,4-dichlorophenyl)-1,3-dioxolan-4-yl)methoxy)phenyl)piperazin-1-yl)phenyl)-1H-1,2,4-triazol-5(4H)-one] | 2.78 | − | 0.89 | ++ (≤0.15) | 
5 | CCC1(Cn2ncn(-c3ccc(N4CCN(c5ccc(OCC6COC(Cn7cncn7)(c7ccc(Cl)cc7Cl)O6)cc5)CC4)cc3)c2=O)COC1 [Compound 7v, cis-(2S,4R)-4-[4-[4-[4-[[2-(2,4-Dichlorophenyl)-2-(1H-1,2,4-triazol-1-ylmethyl)-1,3-dioxolan-4-yl]methoxy]phenyl]-lpiperazinyl]phenyl]-2,4-dihydro-2-((3-ethyloxetan-3-yl)methyl)-3H-1,2,4-triazol-3-one] | 0.77 | ++ | 0.74 | + (0.16 to 0.44) | 
6 | CC/C=C/CCn1ncn(-c2ccc(N3CCN(c4ccc(OCC5COC(Cn6cncn6)(c6ccc(Cl)cc6Cl)O5)cc4)CC3)cc2)c1=O [Compound 7s, cis-(2S,4R)-4-[4-[4-[4-[[2-(2,4-Dichlorophenyl)-2-(1H-1,2,4-triazol-1-ylmethyl)-1,3-dioxolan-4-yl]methoxy]phenyl]-lpiperazinyl]phenyl]-2,4-dihydro-2-((E)-hex-3-enyl)-3H-1,2,4-triazol-3-one] | 1.57 | − | 0.63 | ++ (≤0.15) | 
7 | CCC(C)n1ncn(-c2ccc(N3CCN(c4ccc(OCC5CO[C@@](Cn6cncn6)(c6ccc(Cl)cc6Cl)O5)cc4)CC3)cc2)c1=O (some centres unmarked) [Compound 46a] |  |  |  |  | IC50 (HUVEC; HUVEC): 155 nM
8 | cis-(2R,4S)-4-[4-[4-[4-[[2-(2,4-Dichlorophenyl)-2-(1H-1,2,4-triazol-1-ylmethyl)-1,3-dioxolan-4-yl]methoxy]phenyl]-lpiperazinyl]phenyl]-2,4-dihydro-2-(pent-4-ynyl)-3H-1,2,4-triazol-3-one [Compound 7r] | 0.14 | − | 0.71 | ++ (≤0.15) | 
9 | CCn1ncn(-c2ccc(N3CCN(c4ccc(OC[C@@H]5CO[C@@](Cn6cncn6)(c6ccc(Cl)cc6Cl)O5)cc4)CC3)cc2)c1=O (relative stereo) [Compound 7b, cis-(2S,4R)-4-[4-[4-[4-[[2-(2,4-Dichlorophenyl)-2-(1H-1,2,4-triazol-1-ylmethyl)-1,3-dioxolan-4-yl]methoxy]phenyl]-lpiperazinyl]phenyl]-2,4-dihydro-2-ethyl-3H-1,2,4-triazol-3-one] | 2.94 | − | 1.62 | − (≥0.45) | 
10 | O=C(c1ccccc1)c1ccc(OCCCCCCn2ncn(-c3ccc(N4CCN(c5ccc(OCC6COC(Cn7cncn7)(c7ccc(Cl)cc7Cl)O6)cc5)CC4)cc3)c2=O)cc1 [Compound 7q, cis-(2S,4R)-4-[4-[4-[4-[[2-(2,4-Dichlorophenyl)-2-(1H-1,2,4-triazol-1-ylmethyl)-1,3-dioxolan-4-yl]methoxy]phenyl]-piperazinyl]phenyl]-2,4-dihydro-2-(6-(4-benzoylphenoxy)hexyl)-3H-1,2,4-triazol-3-one] |  | − | 0.8 | − (≥0.45) | 
11 | CC[C@@H](C)n1ncn(-c2ccc(N3CCN(c4ccc(OCC5CO[C@@](Cn6cncn6)(c6ccc(Cl)cc6Cl)O5)cc4)CC3)cc2)c1=O (some centres unmarked) [Itraconazole C, reference compound] |  |  |  |  | IC50 (HUVEC; HUVEC): 152 nM
12 | CC(C)N1CCN(c2ccc(OCC3COC(Cn4cncn4)(c4ccc(Cl)cc4Cl)O3)cc2)CC1 (centres unmarked) [terconazole, reference compound] |  |  |  |  | inhibition of HUVEC proliferation (HUVEC): do not inhibit proliferation; VEGFR2 glycosylation defect (VEGFR2): fail to induce the VEGFR2 glycosylation defect
13 | CCC(C)n1ncn(-c2ccc(N3CCN(c4ccc(OCC5CO[C@@](Cn6cncn6)(c6ccc(Cl)cc6Cl)O5)nc4)CC3)c(C)c2)c1=O (some centres unmarked) [Compound 47a] |  |  |  |  | IC50 (HUVEC; HUVEC): 155 nM
14 | CC(=O)N1CCN(c2ccc(OCC3COC(Cn4ccnc4)(c4ccc(Cl)cc4Cl)O3)cc2)CC1 (centres unmarked) [ketoconazole, reference compound] |  |  |  |  | inhibition of HUVEC proliferation (HUVEC): do not inhibit proliferation; VEGFR2 glycosylation defect (VEGFR2): fail to induce the VEGFR2 glycosylation defect
15 | CCC(C)n1ncn(-c2ccc(N3CCN(c4ccc(OCC5CO[C@](Cn6cncn6)(c6ccc(Cl)cc6Cl)O5)cc4)CC3)cc2)c1=O (some centres unmarked) [Compound 46b] |  |  |  |  | IC50 (HUVEC; HUVEC): 236 nM
16 | HhAntag [reference compound] |  |  |  |  | inhibition of MB proliferation [1]: Dose-dependent inhibition; inhibition of Gli1 transcript levels (Gli1 transcript): Dose-dependent inhibition
17 | CS(=O)(=O)c1ccc(C(=O)Nc2ccc(Cl)c(-c3ccccn3)c2)c(Cl)c1 [GDC-0449, reference compound] |  |  |  |  | inhibition of MB proliferation [1]: Dose-dependent inhibition; inhibition of Gli1 transcript levels (Gli1 transcript): Dose-dependent inhibition
